In patent EP2444086A1, “Combinations comprising DHODH inhibitors and COX inhibitors” (Almirall, S.A., priority 2010, dated 2012):

The molecules below were run on HaCaT cells (assay: Proliferation assay (ATP-lite bioluminescent assay of intracellular ATP content)). Settings: Homo sapiens, 144 h; inhibition of proliferation of HaCaT cells, 6 days incubation, 10% FBS, absolute IC50, mean of 3 experiments.
Assay type: cell-based
Method: Human adult low calcium high temperature (HaCaT) cells are spontaneously transformed human keratinocytes that have the characteristics of basal epidermal keratinocytes (Boukamp et at. J Cell Biol 106:761-771, 1988) This line can be used as in vitro model for highly proliferative epidermis (Ockenfels et at., Arch Dermatol Res 287:301-309, 1995)
HaCaT cells exponentially growing were plated in clear bottom, white walled, 96-well plates at a density of 5000 cells/well in 100 µL Dulbecco's modified Eagle's medium (DMEM) containing 1% fetal bovine serum (FBS), and incubated overnight at 37 °C, 5% CO2. Next day, media in each well was replaced with 50 µL growth medium containing 10% FBS. 50 µL of compounds at two-fold the desired concentration in growth medium containing 2% dimethyl sulfoxide (DMSO) were added to the wells. Six wells were replaced with fresh 100 µL of medium containing 1% FBS and 1% DMSO and were used as a control of no proliferation. Six other wells were replaced with fresh 100 µL of medium containing 10% FBS and 1% DMSO and were used as a control of top proliferation. Each compound concentration was tested in triplicate and ranged from 100 µM to 0.4 µM in half-log serial dilutions. Plates were incubated at 37°C 5% CO2 for 6 consecutive days. On the day of the assay, media was removed and replaced with 100 µL of phosphate buffered saline (PBS). A bioluminescent assay was performed to assess the intracellular adenosine-5'-triphosphate (ATP) content following the manufacturer instructions (ATP-lite, Perkin Elmer, Belgium). Results were expressed as a % of inhibition of proliferation in relation to the top and bottom proliferation wells. Absolute IC50 corresponded to the concentration of compound that caused 50% inhibition of proliferation. Table 1 depicts the mean and the standard deviation of 3 experiments for each indicated compound/combination.

SMILES	IC50
COc1cccc(-c2cc(F)c(Nc3ncccc3C(=O)O)c(F)c2)c1 [Example 1, 2-(3,5-difluoro-3'-methoxybiphenyl-4-ylamino)nicotinic acid]	580 nM
O=C(O)c1cc(C2CC2)ccc1Nc1cnc(-c2c(F)cccc2F)nc1 [Example 2, 5-cyclopropyl-2-(2-(2,6-difluorophenyl)pyrimidin-5-ylamino)benzoic acid]	260 nM
CC(O)=C(C#N)C(=O)Nc1ccc(C(F)(F)F)cc1 [Example 3, 2-Butenamide, 2-cyano-3-hydroxy-N-[4-(trifluoromethyl)phenyl]-, reference compound]	15200 nM
